Results as given in paper PMC8776228 (International Journal of Molecular Sciences, 2022).
≈ marks a conversion by molar mass, not a printed value. Read-outs that look alike come from different tables or passages of the source.

Legend:
[1] = tested on: M. tuberculosis 88.7 (pyrG, V186G); assay type: cell-based, Mycobacterium tuberculosis
[2] = tested on: M. tuberculosis Ty1 (Rv3405c, c190t); assay type: cell-based, Mycobacterium tuberculosis
M. tuberculosis IC1 = assay: microbe, parasite or virus in culture; assay type: cell-based; settings: Mycobacterium tuberculosis
[3] = tested on: M. tuberculosis H37Rv-pSODIT:dprE1; assay: microbe, parasite or virus in culture; assay type: cell-based, Mycobacterium tuberculosis
M. tuberculosis IC2 = assay: microbe, parasite or virus in culture; assay type: cell-based; settings: Mycobacterium tuberculosis
[4] = tested on: M. tuberculosis 53.8 (Rv0579, L240V); assay type: cell-based, Mycobacterium tuberculosis
[5] = tested on: M. tuberculosis NTB9 (DprE1 C387G); assay type: cell-based, Mycobacterium tuberculosis
[6] = tested on: M. tuberculosis DR1 (mmpL3, V681I); assay type: cell-based, Mycobacterium tuberculosis
[7] = tested on: M. tuberculosis 88.1 (coaA, Q207R); assay type: cell-based, Mycobacterium tuberculosis
[8] = tested on: M. tuberculosis 53.3 (Rv2466c, W28S); assay type: cell-based, Mycobacterium tuberculosis
[9] = tested on: M. tuberculosis NTB1 (DprE1 C387S); assay type: cell-based, Mycobacterium tuberculosis
[10] = tested on: M. tuberculosis 81.10 (ethA, D1109-37); assay type: cell-based, Mycobacterium tuberculosis

## CO[C@H]1C[C@H](O[C@@H]2/C(C)=C/C[C@@H]3C[C@@H](C[C@]4(CC[C@H](C)[C@@H](C5CCCCC5)O4)O3)OC(=O)[C@@H]3C=C(C)/C(=N/O)[C@H]4OC/C(=C\C=C\[C@@H]2C)[C@]43O)O[C@@H](C)[C@@H]1O [Selamectin]
[1]
  MIC SEL: 2 to 4 µg/mL
[2]
  MIC SEL: 2 to 4 µg/mL
M. tuberculosis IC1; IC1, read-out: MIC SEL
  MIC: 4 to 8 µg/mL (≈ 5.19 to 10.4 µM)
[3]
  change in susceptibility upon overexpression of dprE1 (MIC): did not confer changes in the susceptibility
M. tuberculosis IC2; IC2, read-out: MIC SEL
  MIC: 4 to 8 µg/mL (≈ 5.19 to 10.4 µM)
[4]
  MIC SEL: 2 to 4 µg/mL
[5]
  MIC SEL: 2 µg/mL (≈ 2.6 µM)
  change in sensitivity compared to H37Rv (MIC): two-fold increase in sensitivity
[6]
  MIC SEL: 2 to 4 µg/mL
[7]
  MIC SEL: 2 to 4 µg/mL
[8]
  MIC SEL: 2 to 4 µg/mL
[9]
  MIC SEL: 2 µg/mL (≈ 2.6 µM)
  change in sensitivity compared to H37Rv (MIC): two-fold increase in sensitivity
[10]
  MIC SEL: 4 to 8 µg/mL

## NNC(=O)c1ccncc1 [INH, isoniazid]
[1]
  MIC INH: 0.025 µg/mL (≈ 0.182 µM)
[2]
  MIC INH: 0.025 µg/mL (≈ 0.182 µM)
M. tuberculosis IC1; IC1, read-out: MIC INH
  MIC: > 0.2 µg/mL
M. tuberculosis IC2; IC2, read-out: MIC INH
  MIC: > 0.2 µg/mL
[4]
  MIC INH: 0.025 µg/mL (≈ 0.182 µM)
[5]
  MIC INH: 0.025 µg/mL (≈ 0.182 µM)
[6]
  MIC INH: 0.025 µg/mL (≈ 0.182 µM)
[7]
  MIC INH: 0.025 µg/mL (≈ 0.182 µM)
[8]
  MIC INH: 0.025 µg/mL (≈ 0.182 µM)
[9]
  MIC INH: 0.025 µg/mL (≈ 0.182 µM)
[10]
  MIC INH: 0.025 µg/mL (≈ 0.182 µM)

## C[C@H]1COC2(CCN(c3nc(=O)c4cc(C(F)(F)F)cc([N+](=O)[O-])c4s3)CC2)O1 [BTZ043]
[3]; Mycobacterium tuberculosis, H37RV, read-out: MIC BTZ043
  MIC: 1 µg/mL (≈ 2.32 µM)
[5]
  MIC BTZ043: 1 µg/mL (≈ 2.32 µM)
[9]
  MIC BTZ043: >1 µg/mL
